Source: PMC5931096, “A Phase I study of the novel immunomodulatory agent PG545 (pixatimod) in subjects with advanced solid tumours” (British Journal of Cancer, 2018)

Experiment: Phase I dose-escalation: safety, tolerability, DLT and MTD of weekly 1-h IV infusion
Assay type: in vivo
Settings: Safety Set
Protocol: The study was an open-label, multicentre, phase 1 dose-escalation study using a 3 + 3 design. The primary objective was to determine the MTD of weekly administered PG545 via IV infusion. Secondary objectives were to characterize safety, tolerability, clinical activity, PK and PD biomarkers.
Patients continued treatment until disease progression, unacceptable toxicity or withdrawal (either voluntarily or investigator-decision).
All patients were assessed for safety, those who received at least one dose of PG545 were evaluated for efficacy. Safety assessment included the incidence of all adverse events (AEs), irrespective of relationship to study drug, according to the National Cancer Institute Common Terminology Criteria for Adverse Events, version 4.0, and the incidence of patients experiencing dose modifications and/or premature discontinuation of study drug. Dose-limiting toxicities (DLTs) used to determine the MTD were defined as occurring during Cycle 1 of treatment only and related to PG545 according to investigator assessment. If no DLT occurred in the first three subjects, the next three-subject cohort was enrolled at the next highest available dose level. If a single DLT occurred, an additional three subjects was enrolled at the same dose level. Dose escalation continued until two subjects of the cohort experienced a DLT; this was defined as the toxic dose level. The dose-escalation phase was completed and MTD determined by reducing the dose to the next lowest dose compared to the toxic dose and expanding this cohort to at least 6 subjects.

CC(C)CCC[C@@H](C)[C@H]1CC[C@H]2[C@@H]3CC[C@H]4C[C@@H](O[C@@H]5O[C@H](COS(=O)(=O)O)[C@@H](O[C@H]6O[C@H](COS(=O)(=O)O)[C@@H](O[C@H]7O[C@H](COS(=O)(=O)O)[C@@H](O[C@H]8O[C@H](COS(=O)(=O)O)[C@@H](OS(=O)(=O)O)[C@H](OS(=O)(=O)O)[C@H]8OS(=O)(=O)O)[C@H](OS(=O)(=O)O)[C@H]7OS(=O)(=O)O)[C@H](OS(=O)(=O)O)[C@H]6OS(=O)(=O)O)[C@H](OS(=O)(=O)O)[C@H]5OS(=O)(=O)O)CC[C@]4(C)[C@H]3CC[C@]12C [PG545]
TEAE: Blood creatinine increased (Mild, Unrelated): 1 (4.3%) | TEAE: Chest discomfort (Mild, Unrelated): 1 (4.3%) | TEAE: Chest pain (Mild, Unrelated): 2 (8.7%) | TEAE: Constipation (Mild, Unrelated): 5 (21.7%) | TEAE: Cough (Mild, Unrelated): 2 (8.7%) | TEAE: Decreased appetite (Mild, Unrelated): 1 (4.3%) | TEAE: Deep vein thrombosis (Mild, Unrelated): 1 (4.3%) | TEAE: Depression (Mild, Unrelated): 3 (13.0%) | TEAE: Diarrhoea (Mild, Unrelated): 3 (13.0%) | TEAE: Dry mouth (Mild, Unrelated): 1 (4.3%) | TEAE: Dry skin (Mild, Unrelated): 1 (4.3%) | TEAE: Dyspepsia (Mild, Unrelated): 1 (4.3%) | TEAE: Dyspnoea (Mild, Unrelated): 5 (21.7%) | TEAE: Fatigue (Mild, Unrelated): 2 (8.7%) | TEAE: Fungal infection (Mild, Unrelated): 1 (4.3%) | TEAE: Gastroesophageal reflux disease (Mild, Unrelated): 1 (4.3%) | TEAE: Gastrointestinal disorders (Mild, Unrelated): 13 (56.5%) | TEAE: General disorders and administration site conditions (Mild, Unrelated): 7 (30.4%) | TEAE: Haematochezia (Mild, Unrelated): 1 (4.3%) | TEAE: Headache (Mild, Unrelated): 1 (4.3%) | TEAE: Hypercalcaemia (Mild, Unrelated): 1 (4.3%) | TEAE: Hypertension (second line of this name) (Mild, Unrelated): 1 (4.3%) | TEAE: Hypokalaemia (Mild, Unrelated): 1 (4.3%) | TEAE: Infections and infestations (Mild, Unrelated): 4 (17.4%) | TEAE: Influenza like illness (Mild, Unrelated): 1 (4.3%) | TEAE: Insomnia (Mild, Unrelated): 3 (13.0%) | TEAE: Investigations (Mild, Unrelated): 3 (13.0%) | TEAE: Lethargy (Mild, Unrelated): 2 (8.7%) | TEAE: Malaise (Mild, Unrelated): 1 (4.3%) | TEAE: Metabolism and nutritional disorders (Mild, Unrelated): 2 (8.7%) | TEAE: Mucosal inflammation (Mild, Unrelated): 2 (8.7%) | TEAE: Musculoskeletal and connective tissue disorders (Mild, Unrelated): 5 (21.7%) | TEAE: Musculoskeletal chest pain (Mild, Unrelated): 1 (4.3%) | TEAE: Nausea (Mild, Unrelated): 3 (13.0%) | TEAE: Nervous system disorders (Mild, Unrelated): 5 (21.7%) | TEAE: Neutrophil count increased (Mild, Unrelated): 1 (4.3%) | TEAE: Onycholysis (Mild, Unrelated): 1 (4.3%) | TEAE: Oropharyngeal pain (Mild, Unrelated): 1 (4.3%) | TEAE: Pain (Mild, Unrelated): 1 (4.3%) | TEAE: Pain in extremity (Mild, Unrelated): 2 (8.7%) | TEAE: Pruritus (Mild, Unrelated): 1 (4.3%) | TEAE: Psychiatric disorders (Mild, Unrelated): 5 (21.7%) | TEAE: Respiratory, thoracic and mediastinal disorders (Mild, Unrelated): 6 (26.1%) | TEAE: Skin and subcutaneous tissue disorders (Mild, Unrelated): 3 (13.0%) | TEAE: Upper respiratory tract infection (Mild, Unrelated): 2 (8.7%) | TEAE: Vascular disorders (Mild, Unrelated): 2 (8.7%) | TEAE: Vomiting (Mild, Unrelated): 5 (21.7%) | TEAE: Vulvovaginal candidiasis (Mild, Unrelated): 1 (4.3%) | TEAE: White blood cell count increased (Mild, Unrelated): 1 (4.3%) | TEAE: aPTT prolonged (Mild, Unrelated): 1 (4.3%) | TEAE: At least one event (Moderate, Related): 13 (56.5%) | TEAE: Chills (Moderate, Related): 2 (8.7%) | TEAE: Constipation (Moderate, Related): 1 (4.3%) | TEAE: Decreased appetite (Moderate, Related): 2 (8.7%) | TEAE: Dehydration (Moderate, Related): 1 (4.3%) | TEAE: Diarrhoea (Moderate, Related): 1 (4.3%) | TEAE: Dyspnoea (Moderate, Related): 1 (4.3%) | TEAE: Fall (Moderate, Related): 1 (4.3%) | TEAE: Fatigue (Moderate, Related): 2 (8.7%) | TEAE: GGT increased (Moderate, Related): 1 (4.3%) | TEAE: Gastrointestinal disorders (Moderate, Related): 4 (17.4%) | TEAE: General disorders and administration site conditions (Moderate, Related): 4 (17.5%) | TEAE: Hypercholesterolaemia (Moderate, Related): 2 (8.7%) | TEAE: Hyperlipidaemia (Moderate, Related): 1 (4.3%) | TEAE: Hypertension (Moderate, Related): 2 (8.7%) | TEAE: Infusion related reaction (Moderate, Related): 4 (17.4%) | TEAE: Injury, poisoning and procedural complications (Moderate, Related): 5 (21.7%) | TEAE: Investigations (Moderate, Related): 1 (4.3%) | TEAE: Lethargy (Moderate, Related): 1 (4.3%) | TEAE: Metabolism and nutritional disorders (Moderate, Related): 4 (17.4%) | TEAE: Nausea (Moderate, Related): 1 (4.3%) | TEAE: Nervous system disorders (Moderate, Related): 1 (4.3%) | TEAE: Pyrexia (Moderate, Related): 1 (4.3%) | TEAE: Respiratory, thoracic and mediastinal disorders (Moderate, Related): 1 (4.3%) | TEAE: Vascular disorders (Moderate, Related): 2 (8.7%) | TEAE: Vomiting (Moderate, Related): 1 (4.3%) | TEAE: AST increased (Moderate, Unrelated): 1 (4.3%) | TEAE: Abdominal distension (Moderate, Unrelated): 1 (4.3%) | TEAE: Abdominal pain (Moderate, Unrelated): 3 (13.0%) | TEAE: Abdominal pain lower (Moderate, Unrelated): 1 (4.3%) | TEAE: Abdominal pain upper (Moderate, Unrelated): 2 (8.7%) | TEAE: Anaemia (Moderate, Unrelated): 2 (8.7%) | TEAE: Arthralgia (Moderate, Unrelated): 1 (4.3%) | TEAE: At least one event (Moderate, Unrelated): 14 (60.9%) | TEAE: Back pain (Moderate, Unrelated): 3 (13.0%) | TEAE: Blood ALP increased (Moderate, Unrelated): 1 (4.3%) | TEAE: Blood and lymphatic system disorders (Moderate, Unrelated): 2 (8.7%) | TEAE: Blood bilirubin increased (Moderate, Unrelated): 1 (4.3%) | TEAE: Constipation (Moderate, Unrelated): 1 (4.3%) | TEAE: Cough (Moderate, Unrelated): 1 (4.3%) | TEAE: Decreased appetite (Moderate, Unrelated): 3 (13.0%) | TEAE: Depression (Moderate, Unrelated): 1 (4.3%) | TEAE: Diplopia (Moderate, Unrelated): 1 (4.3%) | TEAE: Dry mouth (Moderate, Unrelated): 1 (4.3%) | TEAE: Dyspnoea (Moderate, Unrelated): 3 (13.0%) | TEAE: Eye disorders (Moderate, Unrelated): 1 (4.3%) | TEAE: Fatigue (Moderate, Unrelated): 3 (13.0%) | TEAE: GGT increased (Moderate, Unrelated): 1 (4.3%) | TEAE: Gait disturbance (Moderate, Unrelated): 1 (4.3%) | TEAE: Gastrointestinal disorders (Moderate, Unrelated): 6 (26.1%)
